Assay results published in ChEMBL document CHEMBL4673241, “Cannabitwinol, a Dimeric Phytocannabinoid from Hemp, Cannabis sativa L., Is a Selective Thermo-TRP Modulator” (J Nat Prod, 2020).

Tests used:
Format in all cases: cell-based
[1] = target: Transient receptor potential cation channel subfamily M member 8 (Rattus norvegicus, UniProt Q8R455); test: Antagonist activity at rat TRPM8 expressed in HEK293 cells assessed as inhibition of icilin-induced Ca2+ response preincubated for 5 mins followed by icilin addition by Fluo-4AM dye based fluorescence assay
Transient receptor potential cation channel subfamily M member 8, sequence (Q8R455 whole entry): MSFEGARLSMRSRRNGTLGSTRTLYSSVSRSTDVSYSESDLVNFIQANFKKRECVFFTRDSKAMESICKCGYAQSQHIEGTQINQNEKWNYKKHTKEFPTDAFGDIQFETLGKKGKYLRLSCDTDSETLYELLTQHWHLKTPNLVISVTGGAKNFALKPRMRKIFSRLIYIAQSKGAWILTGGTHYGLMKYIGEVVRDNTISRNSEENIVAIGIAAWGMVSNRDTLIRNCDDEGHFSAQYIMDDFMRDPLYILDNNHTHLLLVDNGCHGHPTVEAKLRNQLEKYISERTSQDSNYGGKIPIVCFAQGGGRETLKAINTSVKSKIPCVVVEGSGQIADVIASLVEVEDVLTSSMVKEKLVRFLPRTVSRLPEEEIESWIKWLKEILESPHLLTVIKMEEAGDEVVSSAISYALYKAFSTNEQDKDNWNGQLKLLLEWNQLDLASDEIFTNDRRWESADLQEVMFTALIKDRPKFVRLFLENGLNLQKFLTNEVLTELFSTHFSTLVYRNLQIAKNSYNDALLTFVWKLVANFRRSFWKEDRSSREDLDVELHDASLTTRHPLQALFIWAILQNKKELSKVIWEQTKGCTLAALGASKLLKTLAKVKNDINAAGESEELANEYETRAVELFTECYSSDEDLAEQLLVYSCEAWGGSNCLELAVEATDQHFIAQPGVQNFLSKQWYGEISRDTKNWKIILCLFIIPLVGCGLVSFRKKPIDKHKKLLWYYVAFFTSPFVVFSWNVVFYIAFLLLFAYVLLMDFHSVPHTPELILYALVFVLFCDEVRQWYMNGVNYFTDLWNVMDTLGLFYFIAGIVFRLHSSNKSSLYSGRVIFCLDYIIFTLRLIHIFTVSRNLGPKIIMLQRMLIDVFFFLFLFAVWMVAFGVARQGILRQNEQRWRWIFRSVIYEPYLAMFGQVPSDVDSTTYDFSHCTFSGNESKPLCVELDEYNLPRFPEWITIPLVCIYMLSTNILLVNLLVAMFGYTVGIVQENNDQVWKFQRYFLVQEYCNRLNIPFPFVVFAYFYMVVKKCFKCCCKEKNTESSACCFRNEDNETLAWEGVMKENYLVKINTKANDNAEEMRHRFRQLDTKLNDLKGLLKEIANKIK

[2] = target: T1, Transient receptor potential cation channel subfamily A member 1 (Rattus norvegicus, UniProt Q6RI86); test: Antagonist activity at rat TRPA1 expressed in HEK293 cells assessed as inhibition of allylisothiocyanate-induced Ca2+ response preincubated for 5 mins followed by allylisothiocyanate addition by Fluo-4AM dye based fluorescence assay
T1 sequence (Q6RI86 whole entry): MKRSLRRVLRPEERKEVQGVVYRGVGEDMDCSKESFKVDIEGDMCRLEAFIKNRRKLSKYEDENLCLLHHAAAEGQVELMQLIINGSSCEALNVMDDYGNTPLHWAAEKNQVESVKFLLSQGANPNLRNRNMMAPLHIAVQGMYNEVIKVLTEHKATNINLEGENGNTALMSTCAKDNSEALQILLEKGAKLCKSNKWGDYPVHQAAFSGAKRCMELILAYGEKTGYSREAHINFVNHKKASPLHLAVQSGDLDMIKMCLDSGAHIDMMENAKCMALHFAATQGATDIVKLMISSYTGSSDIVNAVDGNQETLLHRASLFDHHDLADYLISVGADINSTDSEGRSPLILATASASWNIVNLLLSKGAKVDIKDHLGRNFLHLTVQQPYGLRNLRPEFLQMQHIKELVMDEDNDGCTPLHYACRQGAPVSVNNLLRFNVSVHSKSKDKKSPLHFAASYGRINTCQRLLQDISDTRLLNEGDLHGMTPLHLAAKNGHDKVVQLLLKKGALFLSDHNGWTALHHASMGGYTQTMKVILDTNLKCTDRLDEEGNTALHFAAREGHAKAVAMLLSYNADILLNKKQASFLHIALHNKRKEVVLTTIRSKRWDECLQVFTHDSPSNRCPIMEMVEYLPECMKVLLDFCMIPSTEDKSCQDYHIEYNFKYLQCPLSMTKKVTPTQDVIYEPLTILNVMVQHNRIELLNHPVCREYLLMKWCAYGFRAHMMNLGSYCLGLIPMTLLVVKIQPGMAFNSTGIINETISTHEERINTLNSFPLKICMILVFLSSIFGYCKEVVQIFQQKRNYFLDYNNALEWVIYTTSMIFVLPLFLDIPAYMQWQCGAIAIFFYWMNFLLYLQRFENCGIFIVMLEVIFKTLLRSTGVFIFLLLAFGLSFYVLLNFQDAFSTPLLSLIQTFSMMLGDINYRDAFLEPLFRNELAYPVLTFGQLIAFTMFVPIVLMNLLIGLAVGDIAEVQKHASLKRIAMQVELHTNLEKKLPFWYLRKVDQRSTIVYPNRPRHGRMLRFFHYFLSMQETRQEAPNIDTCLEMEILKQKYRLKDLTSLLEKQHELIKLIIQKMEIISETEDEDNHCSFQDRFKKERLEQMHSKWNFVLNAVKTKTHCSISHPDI

[3] = target: T1, Transient receptor potential cation channel subfamily A member 1; test: Agonist activity at rat TRPA1 stably transfected in HEK293 cells assessed as increase in calcium influx in presence of allylisothiocyanate by Fluo-4-AM dye based spectrofluorimetric method
[4] = target: Transient receptor potential cation channel subfamily A member 1 (Rattus norvegicus) (UniProt Q6RI86); test: Agonist activity at rat TRPA1 stably transfected in HEK293 cells assessed as increase in calcium influx by Fluo-4-AM dye based spectrofluorimetric method relative to allylisothiocyanate; conditions: filed as agonist
Transient receptor potential cation channel subfamily A member 1 (Rattus norvegicus), sequence (Q6RI86 whole entry): as above

[5] = target: T2, Transient receptor potential cation channel subfamily V member 4 (Rattus norvegicus, UniProt Q9ERZ8); test: Antagonist activity at rat TRPV4 expressed in HEK293 cells assessed as inhibition of GSK1016790A-induced Ca2+ response preincubated for 5 mins followed by GSK1016790A addition by Fluo-4AM dye based fluorescence assay
T2 sequence (Q9ERZ8 whole entry): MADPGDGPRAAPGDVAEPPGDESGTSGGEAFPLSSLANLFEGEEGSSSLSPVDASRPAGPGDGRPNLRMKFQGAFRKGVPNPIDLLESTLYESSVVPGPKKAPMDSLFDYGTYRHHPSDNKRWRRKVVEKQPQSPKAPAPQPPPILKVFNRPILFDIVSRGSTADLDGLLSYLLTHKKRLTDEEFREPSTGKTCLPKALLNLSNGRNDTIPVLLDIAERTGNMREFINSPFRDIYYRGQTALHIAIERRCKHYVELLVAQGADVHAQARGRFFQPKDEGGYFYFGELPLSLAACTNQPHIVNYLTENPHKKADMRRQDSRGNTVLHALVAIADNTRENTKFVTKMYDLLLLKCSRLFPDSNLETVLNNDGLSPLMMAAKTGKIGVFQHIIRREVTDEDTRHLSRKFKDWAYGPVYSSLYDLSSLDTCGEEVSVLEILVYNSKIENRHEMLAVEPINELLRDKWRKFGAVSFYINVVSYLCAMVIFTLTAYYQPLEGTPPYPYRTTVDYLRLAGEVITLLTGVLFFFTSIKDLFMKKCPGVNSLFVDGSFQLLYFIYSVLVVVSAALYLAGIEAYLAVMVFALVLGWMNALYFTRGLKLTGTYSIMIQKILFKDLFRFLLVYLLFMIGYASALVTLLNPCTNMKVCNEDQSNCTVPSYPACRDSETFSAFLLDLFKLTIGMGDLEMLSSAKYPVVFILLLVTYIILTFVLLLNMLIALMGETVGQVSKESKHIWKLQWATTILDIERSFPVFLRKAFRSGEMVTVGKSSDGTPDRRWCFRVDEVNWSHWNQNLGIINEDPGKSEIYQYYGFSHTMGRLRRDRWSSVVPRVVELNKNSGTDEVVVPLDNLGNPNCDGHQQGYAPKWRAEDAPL

[6] = target: T2, Transient receptor potential cation channel subfamily V member 4; test: Agonist activity at rat TRPV4 stably transfected in HEK293 cells assessed as increase in calcium influx in presence of ionomycin by Fluo-4-AM dye based spectrofluorimetric method
[7] = target: Transient receptor potential cation channel subfamily V member 4 (Rattus norvegicus) (UniProt Q9ERZ8); test: Agonist activity at rat TRPV4 stably transfected in HEK293 cells assessed as increase in calcium influx by Fluo-4-AM dye based spectrofluorimetric method relative to ionomycin
Transient receptor potential cation channel subfamily V member 4 (Rattus norvegicus), sequence (Q9ERZ8 whole entry): as above

[8] = target: T3, Heat sensitive channel TRPV3 (Rattus norvegicus, UniProt Q4QYD9); test: Antagonist activity at rat TRPV3 expressed in HEK293 cells assessed as inhibition of thymol-induced Ca2+ response preincubated for 5 mins followed by thymol addition by Fluo-4AM dye based fluorescence assay
T3 sequence (Q4QYD9 whole entry): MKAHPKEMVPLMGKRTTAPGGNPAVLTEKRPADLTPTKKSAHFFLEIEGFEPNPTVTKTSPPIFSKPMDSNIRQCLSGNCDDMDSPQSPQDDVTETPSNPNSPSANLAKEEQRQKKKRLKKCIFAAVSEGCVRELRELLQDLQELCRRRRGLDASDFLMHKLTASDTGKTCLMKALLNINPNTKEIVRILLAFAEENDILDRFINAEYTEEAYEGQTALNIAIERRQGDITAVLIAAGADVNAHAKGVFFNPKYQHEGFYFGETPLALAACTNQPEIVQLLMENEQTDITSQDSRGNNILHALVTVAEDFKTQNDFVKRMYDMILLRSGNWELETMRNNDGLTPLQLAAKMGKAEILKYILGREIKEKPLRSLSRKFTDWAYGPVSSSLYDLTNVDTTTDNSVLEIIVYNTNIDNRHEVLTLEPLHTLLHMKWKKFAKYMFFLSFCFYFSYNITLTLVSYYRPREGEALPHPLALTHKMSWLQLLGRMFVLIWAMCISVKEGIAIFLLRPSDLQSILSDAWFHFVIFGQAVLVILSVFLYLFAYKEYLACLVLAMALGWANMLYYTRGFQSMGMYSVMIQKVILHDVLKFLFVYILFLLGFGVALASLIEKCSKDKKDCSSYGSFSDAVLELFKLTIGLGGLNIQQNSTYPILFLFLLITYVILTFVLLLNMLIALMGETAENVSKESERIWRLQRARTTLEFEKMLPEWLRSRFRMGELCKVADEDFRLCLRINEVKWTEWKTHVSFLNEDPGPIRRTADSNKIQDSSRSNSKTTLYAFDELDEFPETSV

[9] = target: T3, Heat sensitive channel TRPV3; test: Agonist activity at rat TRPV3 stably transfected in HEK293 cells assessed as increase in calcium influx in presence of ionomycin by Fluo-4-AM dye based spectrofluorimetric method
[10] = target: T4, Heat sensitive channel TRPV3 (Rattus norvegicus) (UniProt Q4QYD9); test: Agonist activity at rat TRPV3 stably transfected in HEK293 cells assessed as increase in calcium influx by Fluo-4-AM dye based spectrofluorimetric method relative to ionomycin; conditions: filed as agonist
T4 sequence (whole entry): T3 sequence (Q4QYD9 whole entry)

[11] = target: T5, Transient receptor potential cation channel subfamily V member 2 (Rattus norvegicus, UniProt Q9WUD2); test: Antagonist activity at rat TRPV2 expressed in HEK293 cells assessed as inhibition of LPC-induced Ca2+ response preincubated for 5 mins followed by LPC addition by Fluo-4AM dye based fluorescence assay
T5 sequence (Q9WUD2 whole entry): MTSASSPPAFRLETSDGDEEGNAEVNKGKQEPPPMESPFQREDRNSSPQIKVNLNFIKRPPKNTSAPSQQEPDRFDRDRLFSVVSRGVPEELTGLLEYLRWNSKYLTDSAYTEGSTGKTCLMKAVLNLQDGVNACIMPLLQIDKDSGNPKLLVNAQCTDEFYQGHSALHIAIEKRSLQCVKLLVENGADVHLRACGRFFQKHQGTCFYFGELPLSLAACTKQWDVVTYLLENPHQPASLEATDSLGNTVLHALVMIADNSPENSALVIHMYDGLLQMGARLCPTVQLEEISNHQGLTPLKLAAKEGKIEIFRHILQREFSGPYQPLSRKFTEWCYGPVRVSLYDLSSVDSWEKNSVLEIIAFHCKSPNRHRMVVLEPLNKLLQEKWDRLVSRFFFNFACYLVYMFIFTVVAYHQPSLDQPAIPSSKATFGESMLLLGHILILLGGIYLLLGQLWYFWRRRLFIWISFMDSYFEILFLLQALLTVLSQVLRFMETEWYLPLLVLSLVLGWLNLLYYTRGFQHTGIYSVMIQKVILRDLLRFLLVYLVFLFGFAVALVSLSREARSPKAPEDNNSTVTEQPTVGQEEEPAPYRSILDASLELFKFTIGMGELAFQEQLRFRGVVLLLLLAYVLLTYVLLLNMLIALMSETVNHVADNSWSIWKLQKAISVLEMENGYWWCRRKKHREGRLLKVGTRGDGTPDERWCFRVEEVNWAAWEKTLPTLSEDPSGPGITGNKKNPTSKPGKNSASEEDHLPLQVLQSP

[12] = target: T5, Transient receptor potential cation channel subfamily V member 2; test: Agonist activity at rat TRPV2 stably transfected in HEK293 cells assessed as increase in calcium influx in presence of ionomycin by Fluo-4-AM dye based spectrofluorimetric method
[13] = target: T6, Transient receptor potential cation channel subfamily V member 2 (Rattus norvegicus) (UniProt Q9WUD2); test: Agonist activity at rat TRPV2 stably transfected in HEK293 cells assessed as increase in calcium influx by Fluo-4-AM dye based spectrofluorimetric method relative to ionomycin
T6 sequence (whole entry): T5 sequence (Q9WUD2 whole entry)

[14] = target: T7, Transient receptor potential cation channel subfamily V member 1 (Homo sapiens, UniProt Q8NER1); test: Antagonist activity at human TRPV1 expressed in HEK293 cells assessed as inhibition of capsaicin-induced Ca2+ response preincubated for 5 mins followed by capsaicin addition by Fluo-4AM dye based fluorescence assay
T7 sequence (Q8NER1 whole entry): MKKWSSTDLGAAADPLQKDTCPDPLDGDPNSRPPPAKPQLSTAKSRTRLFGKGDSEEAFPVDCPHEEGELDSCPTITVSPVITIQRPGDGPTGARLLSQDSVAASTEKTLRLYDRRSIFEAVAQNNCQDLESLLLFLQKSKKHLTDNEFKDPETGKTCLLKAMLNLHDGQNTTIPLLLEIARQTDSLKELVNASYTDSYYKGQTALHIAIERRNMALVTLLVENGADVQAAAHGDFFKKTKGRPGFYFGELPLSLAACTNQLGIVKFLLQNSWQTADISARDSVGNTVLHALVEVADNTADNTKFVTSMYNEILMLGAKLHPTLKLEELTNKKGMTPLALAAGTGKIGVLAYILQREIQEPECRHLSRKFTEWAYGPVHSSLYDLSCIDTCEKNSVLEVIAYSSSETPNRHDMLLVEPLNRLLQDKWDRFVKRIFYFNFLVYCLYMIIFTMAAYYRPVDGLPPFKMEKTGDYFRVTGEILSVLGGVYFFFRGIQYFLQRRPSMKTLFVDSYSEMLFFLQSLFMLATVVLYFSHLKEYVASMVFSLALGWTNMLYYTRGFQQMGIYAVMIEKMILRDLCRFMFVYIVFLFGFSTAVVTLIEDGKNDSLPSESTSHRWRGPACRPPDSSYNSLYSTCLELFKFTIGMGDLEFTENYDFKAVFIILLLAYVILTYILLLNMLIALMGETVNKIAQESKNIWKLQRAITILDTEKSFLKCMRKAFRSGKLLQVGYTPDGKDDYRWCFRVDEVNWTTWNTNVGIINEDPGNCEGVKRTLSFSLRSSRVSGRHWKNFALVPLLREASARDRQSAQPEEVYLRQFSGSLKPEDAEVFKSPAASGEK

[15] = target: T7, Transient receptor potential cation channel subfamily V member 1; test: Agonist activity at human TRPV1 stably transfected in HEK293 cells assessed as increase in calcium influx in presence of ionomycin by Fluo-4-AM dye based spectrofluorimetric method
[16] = target: T7, Transient receptor potential cation channel subfamily V member 1; test: Agonist activity at human TRPV1 stably transfected in HEK293 cells assessed as increase in calcium influx by Fluo-4-AM dye based spectrofluorimetric method relative to ionomycin

| SMILES | IC50 [1] | IC50 [2] | EC50 [3] | Efficacy [4] | IC50 [5] | EC50 [6] | Efficacy [7] | IC50 [8] | EC50 [9] | Efficacy [10] | IC50 [11] | EC50 ([12]; hek293) | Efficacy [13] | IC50 [14] | EC50 [15] | Efficacy [16] | EC50 ([12]; read-out: EC50) | Efficacy ([13]; filed as agonist) | Efficacy ([16]; filed as agonist) |
| --- | --- | --- | --- | --- | --- | --- | --- | --- | --- | --- | --- | --- | --- | --- | --- | --- | --- | --- | --- |
| C=C(C)[C@@H]1CCC(C)=C[C@H]1c1c(O)cc(CCCCC)c(Cc2c(CCCCC)cc(O)c([C@@H]3C=C(C)CC[C@H]3C(=C)C)c2O)c1O | 3.9 µM | 4.9 µM | 3 µM | 96.7% | > 20 µM | 6.2 µM | 10.6% | 11.8 µM | 4.6 µM | 66.5% | > 20 µM | Not Active | < 10% | > 20 µM | 4.5 µM | 12.3% |  |  |  |
| C=C(C)[C@@H]1CCC(C)=C[C@H]1c1c(O)cc(CCCCC)cc1O [CANNABIDIOL] | 2.8 µM | 0.45 µM | 0.48 µM | 109% | 5.9 µM | 0.9 µM | 15.2% | 0.75 µM | 0.51 µM | 53.6% | 1.1 µM |  |  | 3.7 µM | 4.1 µM |  | 1.2 µM | 67.5% | 78.4% |
